The experiment deals with T1, human NMB receptor (BB1) (Homo sapiens, UniProt P28336).
T1 construct: expressed in transfected cells; membranes prepared from the cells
The experiment in a line: BB1 binding assay ([125I][Tyr4]bombesin displacement, CHO-K1 membranes). Particulars: for Ki: Table 1, human NMB receptor binding affinity, Ki from IC50 by Cheng-Prusoff, read-out: NMB Ki. The procedure:
In the following experiments, measurement of BB1 and BB2 binding was as follows. CHO-K1 cells stably expressing cloned human NMB (for (BB1 assay) and GRP receptors (for BB2 assay) were routinely grown in Ham's F12 culture medium supplemented with 10% foetal calf serum and 2 mM glutamine. For binding experiments, cells were harvested by trypsinization, and stored frozen at −70° C. in Ham's F12 culture medium containing 5% DMSO until required. On the day of use, cells were thawed rapidly, diluted with an excess of culture medium, and centrifuged for 5 minutes at 2000 g. Cells were resuspended in 50 mM Tris-HCl assay buffer (pH 7.4 at 21° C., containing 0.02% BSA, 40 μg/mL bacitracin, 2 μg/mL chymostatin, 4 μg/mL leupeptin, and 2 μM phosphoramidon), counted, and polytronned (setting 5, 10 sec) before centrifuging for 10 minutes at 28,000 g. The final pellet was resuspended in assay buffer to a final cell concentration of 1.5×10^5/mL. For binding assays, […] aliquots of membranes were incubated with [^125I][Tyr^4]bombesin (<0.1 nM) in the presence and absence of test compounds (final assay volume 250 μL) for 60 minutes and 90 minutes for NMB and GRP receptors, respectively. Nonspecific binding was defined by 1 μM bombesin. Assays were terminated by rapid filtration under vacuum onto Whatman GF/C filters presoaked in 0.2% PEI for >2 hours, and washed 50 mM Tris-HCl (pH 6.9 at 21° C.; 6×1 mL). Radioactivity bound was determined using a gamma counter.
All competition data was analysed using nonlinear regression utilizing iterative curve-plotting procedures in Prism® (GraphPad Software Inc., San Diego, USA). IC50 values were corrected to Ki values using the Cheng-Prusoff equation (Cheng Y., Prusoff W. H., Biochem. Pharmacol. 22: 3099-3108, 1973). obtained are listed in Table 1.

[1] abbreviates: Table 3, N-acyl derivatives of Intermediate III-7.

Like-named read-outs stand apart in the source and are kept apart here.

T1 sequence (P28336 whole entry): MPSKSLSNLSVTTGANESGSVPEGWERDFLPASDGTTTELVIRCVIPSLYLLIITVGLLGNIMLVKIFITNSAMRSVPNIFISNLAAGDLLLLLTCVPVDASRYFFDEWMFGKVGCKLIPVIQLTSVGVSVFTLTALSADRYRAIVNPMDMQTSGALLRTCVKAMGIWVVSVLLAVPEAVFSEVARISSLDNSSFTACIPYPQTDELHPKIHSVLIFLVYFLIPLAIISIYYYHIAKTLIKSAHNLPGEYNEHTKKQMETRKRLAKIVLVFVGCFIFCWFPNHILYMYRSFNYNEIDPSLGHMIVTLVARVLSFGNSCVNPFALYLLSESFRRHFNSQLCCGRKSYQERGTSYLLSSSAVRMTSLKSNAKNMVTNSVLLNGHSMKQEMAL

As to `C[C@@](Cc1c[nH]c2ccccc12)(NS(=O)(=O)c1ccc(Cl)cc1[N+](=O)[O-])C(=O)NCC1(c2ccccn2)CCCCC1` [Example 149], the IC50 – broadly, the midpoint of a concentration-inhibition curve – was determined as 513 nM. On the same count and under the same terms, under `C[C@@](Cc1c[nH]c2ccccc12)(NS(=O)(=O)c1ccc(-c2ccon2)s1)C(=O)NCC1(c2ccccn2)CCCCC1` [Example 141] stands 534 nM; under `C[C@@](Cc1c[nH]c2ccccc12)(NS(=O)(=O)c1ccc(Cl)c(Cl)c1)C(=O)NCC1(c2ccccn2)CCCCC1` [Example 125], 216 nM; under `C[C@@](Cc1c[nH]c2ccccc12)(NS(=O)(=O)c1ccc2ccccc2c1)C(=O)NCC1(c2ccccn2)CCCCC1` [Example 118], 322 nM. On the same count and under the same terms, under `C[C@@](Cc1c[nH]c2ccccc12)(NS(=O)(=O)c1ccc(S(C)(=O)=O)cc1)C(=O)NCC1(c2ccccn2)CCCCC1` [Example 163] stands 1040 nM; under `C[C@@](Cc1c[nH]c2ccccc12)(NS(=O)(=O)c1cccc2nsnc12)C(=O)NCC1(c2ccccn2)CCCCC1` [Example 137], 256 nM. On the same count and under the same terms, with `Cn1cnc(S(=O)(=O)N[C@@](C)(Cc2c[nH]c3ccccc23)C(=O)NCC2(c3ccccn3)CCCCC2)c1` [Example 138] the figure was 3670 nM; with `Cc1nn(C)c(Cl)c1S(=O)(=O)N[C@@](C)(Cc1c[nH]c2ccccc12)C(=O)NCC1(c2ccccn2)CCCCC1` [Example 135], 1250 nM; with `CN(C)c1cccc2c(S(=O)(=O)N[C@@](C)(Cc3c[nH]c4ccccc34)C(=O)NCC3(c4ccccn4)CCCCC3)cccc12` [Example 117], 1300 nM.

The compound `C[C@@](Cc1c[nH]c2ccccc12)(NS(=O)(=O)c1cc([N+](=O)[O-])ccc1Cl)C(=O)NCC1(c2ccccn2)CCCCC1` [Example 147] displayed an IC50 of 374 nM. Against the preceding compound, the IC50 is about 3.5-fold lower. In turn, `C[C@@](Cc1c[nH]c2ccccc12)(NC(=O)c1cc2ccccc2cn1)C(=O)NCC1(c2ccccn2)CCCCC1` [Example 77, Isoquinoline-3-carboxylic acid {(S)-2-(1H-indol-3-yl)-1-methyl-1-[(1-pyridin-2-yl-cyclohexylmethyl)-carbamoyl]-ethyl}-amide] showed an IC50 under setting [1] of 1360 nM. On the same count and under the same terms, with `Cn1cccc1C(=O)N[C@@](C)(Cc1c[nH]c2ccccc12)C(=O)NCC1(c2ccccn2)CCCCC1` [Example 63, 1-Methyl-1H-pyrrole-2-carboxylic acid {(S)-2-(1H-indol-3-yl)-1-methyl-1-[(1-pyridin-2-yl-cyclohexylmethyl)-carbamoyl]-ethyl}-amide] the figure was 4820 nM; with `C[C@@](Cc1c[nH]c2ccccc12)(NC(=O)c1cnc2ccccc2n1)C(=O)NCC1(c2ccccn2)CCCCC1` [Example 78, Quinoxaline-2-carboxyiic acid {(S)-2-(1H-indol-3-yl)-1-methyl-1-[(1-pyridin-2-yl-cyclohexylmethyl)-carbamoyl]-ethyl}-amide], 1420 nM. As to `C[C@@](Cc1c[nH]c2ccccc12)(NS(=O)(=O)c1ccc(Cl)s1)C(=O)NCC1(c2ccccn2)CCCCC1` [Example 128], the IC50 was 404 nM. In other words, the sub-micromolar range.

With `C[C@@](Cc1c[nH]c2ccccc12)(Nc1cccc(-c2ccccc2)n1)C(=O)NCC1(c2ccccn2)CCCCC1` [Example 23, (S)-3-(1H-Indol-3-yl)-2-methyl-2-(6-phenyl-pyridin-2-ylamino)-N-(1-pyridin-2-yl-cyclohexylmethyl)-propionamide], the inhibition constant Ki (in general, a measure of affinity in units of concentration, obtained from inhibition or displacement) is 3370 nM.

In turn, `C[C@@](Cc1c[nH]c2ccccc12)(NS(=O)(=O)c1ccc([N+](=O)[O-])cc1)C(=O)NCC1(c2ccccn2)CCCCC1` [Example 123] returned an IC50 of 515 nM. On the same count and under the same terms, with `C[C@@](Cc1c[nH]c2ccccc12)(NS(=O)(=O)c1ccc([N+](=O)[O-])cc1[N+](=O)[O-])C(=O)NCC1(c2ccccn2)CCCCC1` [Example 162] the figure was 475 nM; with `C[C@@](Cc1c[nH]c2ccccc12)(NS(=O)(=O)c1ccc(S(=O)(=O)c2ccccc2)s1)C(=O)NCC1(c2ccccn2)CCCCC1` [Example 150], 297 nM; with `Cc1cc(S(=O)(=O)N[C@@](C)(Cc2c[nH]c3ccccc23)C(=O)NCC2(c3ccccn3)CCCCC2)c(Cl)cc1Cl` [Example 165], 172 nM.

Regarding `C[C@@](Cc1c[nH]c2ccccc12)(NS(=O)(=O)c1cccc2cccc([N+](=O)[O-])c12)C(=O)NCC1(c2ccccn2)CCCCC1` [Example 146], the half-maximal inhibitory concentration (IC50) was 177 nM. Same read-out and setting: with `C[C@@](Cc1c[nH]c2ccccc12)(NS(=O)(=O)c1ccc(-c2ccccn2)s1)C(=O)NCC1(c2ccccn2)CCCCC1` [Example 160] the figure was 344 nM; with `Cc1ccc(S(=O)(=O)N[C@@](C)(Cc2c[nH]c3ccccc23)C(=O)NCC2(c3ccccn3)CCCCC2)cc1` [Example 112], 557 nM; with `CC(C)(C)c1ccc(S(=O)(=O)N[C@@](C)(Cc2c[nH]c3ccccc23)C(=O)NCC2(c3ccccn3)CCCCC2)cc1` [Example 164], 406 nM. `COC(=O)c1ccccc1S(=O)(=O)N[C@@](C)(Cc1c[nH]c2ccccc12)C(=O)NCC1(c2ccccn2)CCCCC1` [Example 155] registered an IC50 of 242 nM. This IC50 is about 1.7-fold lower than that of the compound before. The compound `C[C@@](Cc1c[nH]c2ccccc12)(NS(=O)(=O)c1ccccc1C(F)(F)F)C(=O)NCC1(c2ccccn2)CCCCC1` [Example 129, (S)-3-(1H-indol-3-yl)-2-methyl-N-(1-pyridin-2-yl-cyclohexylmethyl)-2-(2-trifluoromethyl-benzenesulfonylamino)-propionamide] came in with an IC50 of 134 nM. For the compound `C[C@@](Cc1c[nH]c2ccccc12)(Nc1ccccc1-c1ccccc1)C(=O)NCC1(c2ccccn2)CCCCC1` [Example 21, (S)-2-(Biphenyl-2-ylamino)-3-(1H-indol-3-yl)-2-methyl-N-(1-pyridin-2-yl-cyclohexylmethyl)-propionamide], the Ki worked out at 824 nM. On the same count and under the same terms, under `C[C@@](Cc1c[nH]c2ccccc12)(NCc1cc2ccccc2o1)C(=O)NCC1(c2ccccn2)CCCCC1` [Example 26] stands 2400 nM. As to `C[C@@](Cc1c[nH]c2ccccc12)(NS(=O)(=O)c1ccccc1F)C(=O)NCC1(c2ccccn2)CCCCC1` [Example 114], the IC50 turned out to be 267 nM. Same read-out and setting: under `C[C@@](Cc1c[nH]c2ccccc12)(NS(=O)(=O)c1c(Cl)cc(Cl)cc1Cl)C(=O)NCC1(c2ccccn2)CCCCC1` [Example 148] stands 215 nM. For the compound `C[C@@](Cc1c[nH]c2ccccc12)(NC(=O)c1ccc2[nH]nnc2c1)C(=O)NCC1(c2ccccn2)CCCCC1` [Example 73, 1H-Benzotriazole-5-carboxylic acid {(S)-2-(1H-indol-3-yl)-1-methyl-1-[(1-pyridin-2-yl-cyclohexylmethyl)-carbamoyl]-ethyl}-amide], the IC50 under setting [1] came out at 3170 nM.

The compound `COc1cc(C)ccc1S(=O)(=O)N[C@@](C)(Cc1c[nH]c2ccccc12)C(=O)NCC1(c2ccccn2)CCCCC1` [Example 159] gave an IC50 of 445 nM. In turn, `C[C@@](Cc1c[nH]c2ccccc12)(NC(=O)c1ccoc1)C(=O)NCC1(c2ccccn2)CCCCC1` [Example 59] registered an IC50 under setting [1] of 1200 nM.

`Cc1cc(C(=O)N[C@@](C)(Cc2c[nH]c3ccccc23)C(=O)NCC2(c3ccccn3)CCCCC2)no1` [Example 62]: under setting [1], the IC50 is 4130 nM. In turn, `C[C@@](Cc1c[nH]c2ccccc12)(NS(=O)(=O)c1cccs1)C(=O)NCC1(c2ccccn2)CCCCC1` [Example 119] returned an IC50 of 232 nM.

On to `C[C@@](Cc1c[nH]c2ccccc12)(NS(=O)(=O)c1cccc2nonc12)C(=O)NCC1(c2ccccn2)CCCCC1` [Example 139], for which the IC50 was determined as 507 nM.

The values are drawn from US20020169101A1, “Treatment of sexual dysfunction” (priority 1999, published 2002).
